Common to all, as to test: relative viability (nuclei count vs DMSO), 5 days (fraction); higher = more cells survive
Compound in the assay “JZL-184 + Navitoclax”: C1CN(CCC1C(C2=CC3=C(C=C2)OCO3)(C4=CC5=C(C=C4)OCO5)O)C(=O)OC6=CC=C(C=C6)[N+](=O)[O-] [JZL-184] + CC1(C)CCC(c2ccc(Cl)cc2)=C(CN2CCN(c3ccc(C(=O)NS(=O)(=O)c4ccc(N[C@H](CCN5CCOCC5)CSc5ccccc5)c(S(=O)(=O)C(F)(F)F)c4)cc3)CC2)C1 [Navitoclax] (partner 0.5 µM)
A digest of the protocol:
(§1)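 Dosing by pin tool came one day after lung cancer cell lines were seeded in 1536-well plates, using either one drug or a fixed anchor-drug dose plus five library-drug doses (not always all listed) in √10 steps. After 5 days, nuclei were counted on 4× images. Relative viability is treated-well nuclei count divided by vehicle-well nuclei count, and values are medians of duplicate plates.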

Compound in the assay “JZL-184 + Foretinib”: C1CN(CCC1C(C2=CC3=C(C=C2)OCO3)(C4=CC5=C(C=C4)OCO5)O)C(=O)OC6=CC=C(C=C6)[N+](=O)[O-] [JZL-184] + COc1cc2c(Oc3ccc(NC(=O)C4(C(=O)Nc5ccc(F)cc5)CC4)cc3F)ccnc2cc1OCCCN1CCOCC1 [Foretinib] (partner 0.25 µM)
A digest of the protocol:
as §1

Compound in the assay “JZL-184 + OSI-027”: C1CN(CCC1C(C2=CC3=C(C=C2)OCO3)(C4=CC5=C(C=C4)OCO5)O)C(=O)OC6=CC=C(C=C6)[N+](=O)[O-] [JZL-184] + COc1cccc2cc(-c3nc([C@H]4CC[C@H](C(=O)O)CC4)n4ncnc(N)c34)[nH]c12 [OSI-027] (partner 0.5 µM)
A digest of the protocol:
as §1

Compound in the assay “JZL-184 + Tozasertib”: C1CN(CCC1C(C2=CC3=C(C=C2)OCO3)(C4=CC5=C(C=C4)OCO5)O)C(=O)OC6=CC=C(C=C6)[N+](=O)[O-] [JZL-184] + Cc1cc(Nc2cc(N3CCN(C)CC3)nc(Sc3ccc(NC(=O)C4CC4)cc3)n2)n[nH]1 [Tozasertib] (partner 0.1 µM)
A digest of the protocol: as §1

Compound in the assay “JZL-184 + Pemetrexed”: C1CN(CCC1C(C2=CC3=C(C=C2)OCO3)(C4=CC5=C(C=C4)OCO5)O)C(=O)OC6=CC=C(C=C6)[N+](=O)[O-] [JZL-184] + Nc1nc2[nH]cc(CCc3ccc(C(=O)N[C@@H](CCC(=O)O)C(=O)O)cc3)c2c(=O)[nH]1 [Pemetrexed] (partner 0.2 µM)
A digest of the protocol:
as §1

In the case of NCI-H2347, the relative viability with JZL-184 + Navitoclax (first compound 0.04 µM) amounted to 0.68; with JZL-184 + Navitoclax (first compound 0.4 µM), 0.706; with JZL-184 + Navitoclax (first compound 1.265 µM), 0.82; with JZL-184 + Navitoclax (first compound 4 µM) it was 0.903; with JZL-184 + Foretinib (first compound 0.04 µM), 0.771; with JZL-184 + Foretinib (first compound 0.4 µM), 0.884. Besides, the relative viability with JZL-184 + Foretinib (first compound 1.265 µM) came to 1.13; in the assay with JZL-184 + Foretinib (first compound 4 µM), 1.3; in the assay with JZL-184 + OSI-027 (first compound 0.04 µM) it was 0.396; with JZL-184 + OSI-027 (first compound 0.4 µM) it was 0.393; with JZL-184 + OSI-027 (first compound 1.265 µM), 0.419; with JZL-184 + OSI-027 (first compound 4 µM), 0.477. In addition, the relative viability worked out at 0.447 with JZL-184 + Tozasertib (first compound 0.04 µM); 0.442 with JZL-184 + Tozasertib (first compound 0.4 µM); 0.551 with JZL-184 + Tozasertib (first compound 1.265 µM); 0.662 in the assay with JZL-184 + Tozasertib (first compound 4 µM); 0.388 with JZL-184 + Pemetrexed (first compound 0.04 µM); 0.368 with JZL-184 + Pemetrexed (first compound 0.4 µM). Also, the relative viability worked out at 0.402 with JZL-184 + Pemetrexed (first compound 1.265 µM) and 0.45 with JZL-184 + Pemetrexed (first compound 4 µM).

Turning to NCI-H2405, the relative viability in the assay with JZL-184 + Navitoclax (first compound 0.04 µM) worked out at 0.97; in the assay with JZL-184 + Navitoclax (first compound 0.4 µM), 0.847; with JZL-184 + Navitoclax (first compound 1.265 µM), 1.03; with JZL-184 + Navitoclax (first compound 4 µM) it was 0.884; in the assay with JZL-184 + Foretinib (first compound 0.04 µM), 1.08; with JZL-184 + Foretinib (first compound 0.4 µM) it was 1.06. Further, the relative viability with JZL-184 + Foretinib (first compound 1.265 µM) amounted to 1.13; with JZL-184 + Foretinib (first compound 4 µM) it was 1; with JZL-184 + OSI-027 (first compound 0.04 µM), 0.608; with JZL-184 + OSI-027 (first compound 0.4 µM) it was 0.608; in the assay with JZL-184 + OSI-027 (first compound 1.265 µM), 0.651; in the assay with JZL-184 + OSI-027 (first compound 4 µM), 0.615. The relative viability stood at 0.759 with JZL-184 + Tozasertib (first compound 0.04 µM); 0.729 with JZL-184 + Tozasertib (first compound 0.4 µM); 0.815 with JZL-184 + Tozasertib (first compound 1.265 µM); 0.732 with JZL-184 + Tozasertib (first compound 4 µM); 1.09 in the assay with JZL-184 + Pemetrexed (first compound 0.04 µM); 0.999 in the assay with JZL-184 + Pemetrexed (first compound 0.4 µM). Further, the results for the relative viability with JZL-184 + Pemetrexed (first compound 1.265 µM) and with JZL-184 + Pemetrexed (first compound 4 µM) were 1.14 and 1.05, respectively.

Turning to NCI-H3122, the relative viability with JZL-184 + Navitoclax (first compound 0.04 µM) amounted to 1.03; with JZL-184 + Navitoclax (first compound 0.4 µM), 0.98; with JZL-184 + Navitoclax (first compound 1.265 µM), 0.968; in the assay with JZL-184 + Navitoclax (first compound 4 µM), 1.01; with JZL-184 + Foretinib (first compound 0.04 µM), 1.03; with JZL-184 + Foretinib (first compound 0.4 µM), 0.954. In addition, the relative viability with JZL-184 + Foretinib (first compound 1.265 µM) stood at 0.944; in the assay with JZL-184 + Foretinib (first compound 4 µM), 0.983; with JZL-184 + OSI-027 (first compound 0.04 µM), 1.14; with JZL-184 + OSI-027 (first compound 0.4 µM), 0.902; with JZL-184 + OSI-027 (first compound 1.265 µM), 0.944; in the assay with JZL-184 + OSI-027 (first compound 4 µM) it was 0.862. For the same cell line, the relative viability with JZL-184 + Tozasertib (first compound 0.04 µM) amounted to 0.432; in the assay with JZL-184 + Tozasertib (first compound 0.4 µM), 0.393; in the assay with JZL-184 + Tozasertib (first compound 1.265 µM), 0.453; with JZL-184 + Tozasertib (first compound 4 µM), 0.396; with JZL-184 + Pemetrexed (first compound 0.04 µM), 0.187; with JZL-184 + Pemetrexed (first compound 0.4 µM), 0.18. The results for the relative viability with JZL-184 + Pemetrexed (first compound 1.265 µM) and with JZL-184 + Pemetrexed (first compound 4 µM) were 0.2 and 0.204, respectively.

For the cell line PC-3 [JPC-3], the relative viability worked out at 0.794 with JZL-184 + Navitoclax (first compound 0.04 µM); 0.838 with JZL-184 + Navitoclax (first compound 0.4 µM); 0.791 with JZL-184 + Navitoclax (first compound 1.265 µM); 0.77 with JZL-184 + Navitoclax (first compound 4 µM); 1.08 in the assay with JZL-184 + Foretinib (first compound 0.04 µM); 0.975 in the assay with JZL-184 + Foretinib (first compound 0.4 µM). Also, the relative viability with JZL-184 + Foretinib (first compound 1.265 µM) is 1.09; in the assay with JZL-184 + Foretinib (first compound 4 µM), 0.913; with JZL-184 + OSI-027 (first compound 0.04 µM) it was 0.732; with JZL-184 + OSI-027 (first compound 0.4 µM) it was 0.724; with JZL-184 + OSI-027 (first compound 1.265 µM), 0.782; with JZL-184 + OSI-027 (first compound 4 µM) it was 0.749. Further, the relative viability was found to be 1.01 with JZL-184 + Tozasertib (first compound 0.04 µM); 0.827 in the assay with JZL-184 + Tozasertib (first compound 0.4 µM); 0.895 in the assay with JZL-184 + Tozasertib (first compound 1.265 µM); 0.865 with JZL-184 + Tozasertib (first compound 4 µM); 0.994 with JZL-184 + Pemetrexed (first compound 0.04 µM); 1.13 with JZL-184 + Pemetrexed (first compound 0.4 µM). Besides, the results for the relative viability with JZL-184 + Pemetrexed (first compound 1.265 µM) and with JZL-184 + Pemetrexed (first compound 4 µM) were 1.27 and 1.05, respectively.

For the cell line PC-14, the relative viability in the assay with JZL-184 + Navitoclax (first compound 0.04 µM) came to 0.998; in the assay with JZL-184 + Navitoclax (first compound 0.4 µM) it was 1; in the assay with JZL-184 + Navitoclax (first compound 1.265 µM) it was 0.964; in the assay with JZL-184 + Navitoclax (first compound 4 µM) it was 0.992; with JZL-184 + Foretinib (first compound 0.04 µM), 1.02; with JZL-184 + Foretinib (first compound 0.4 µM), 0.927. For the same cell line, the relative viability with JZL-184 + Foretinib (first compound 1.265 µM) came out at 0.954; with JZL-184 + Foretinib (first compound 4 µM) it was 0.946; with JZL-184 + OSI-027 (first compound 0.04 µM), 1.07; in the assay with JZL-184 + OSI-027 (first compound 0.4 µM), 0.831; with JZL-184 + OSI-027 (first compound 1.265 µM), 0.853; with JZL-184 + OSI-027 (first compound 4 µM) it was 0.72. In addition, the relative viability with JZL-184 + Tozasertib (first compound 0.04 µM) worked out at 0.647; in the assay with JZL-184 + Tozasertib (first compound 0.4 µM), 0.623; with JZL-184 + Tozasertib (first compound 1.265 µM), 0.631; with JZL-184 + Tozasertib (first compound 4 µM), 0.485; in the assay with JZL-184 + Pemetrexed (first compound 0.04 µM) it was 0.126; with JZL-184 + Pemetrexed (first compound 0.4 µM), 0.128. The relative viability with JZL-184 + Pemetrexed (first compound 1.265 µM) came out at 0.15; with JZL-184 + Pemetrexed (first compound 4 µM), 0.114.

(Values after the supplement of paper PMC10307832.)
